Assays:
Assay in all cases: combination Emax (second highest fraction inhibited in the dose matrix, 72 h); higher = more inhibition; extreme values may be limits of the assay
[1] = tested on: OVISE (Ovarian Carcinoma)
In short: (§1)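 Bliss excess equals the observed combination effect minus the expected value EA + EB − EA·EB, where EA and EB are the effects of each agent alone. Combination Emax is the second-highest inhibition within the matrix. Inhibition was scaled from CellTiter-Glo 2.0 luminescence, with 0 set by vehicle wells and 1 by blank wells, after 72 hours of two-drug dosing of cells plated in 1536-well plates.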

BT-20 (Breast Carcinoma) = tested on: BT-20 (Breast Carcinoma)
In short: as §1

A704 (Kidney Carcinoma) = tested on: A704 (Kidney Carcinoma)
In short: as §1

[2] = tested on: NCI-H2405 (Lung Adenocarcinoma)
In short: as §1

[3] = tested on: SCC-3 (B-Cell Non-Hodgkin's Lymphoma)
In short: as §1

[4] = tested on: SNU-C1 (Colorectal Carcinoma)
In short: as §1

RPMI-7951 (Melanoma) = tested on: RPMI-7951 (Melanoma)
In short: as §1

NB7 (Neuroblastoma) = tested on: NB7 (Neuroblastoma)
In short: as §1

EW-18 (Ewing's Sarcoma) = tested on: EW-18 (Ewing's Sarcoma)
In short: as §1

[5] = tested on: KINGS-1 (Low Grade Glioma)
In short: as §1

[6] = tested on: BV-173 (Chronic Myelogenous Leukemia)
In short: as §1

[7] = tested on: OCUB-M (Breast Carcinoma)
In short: as §1

[8] = tested on: SCC-9 (Oral Cavity Carcinoma)
In short: as §1

[9] = tested on: MFE-319 (Endometrial Carcinoma)
In short: as §1

Row | Structure (SMILES) | combination Emax [1] | combination Emax (BT-20 (Breast Carcinoma)) | combination Emax (A704 (Kidney Carcinoma)) | combination Emax [2] | combination Emax [3] | combination Emax [4] | combination Emax (RPMI-7951 (Melanoma)) | combination Emax (NB7 (Neuroblastoma)) | combination Emax (EW-18 (Ewing's Sarcoma)) | combination Emax [5] | combination Emax [6] | combination Emax [7] | combination Emax [8] | combination Emax [9]
1 | COc1nnc2ccc(N3CCC(c4ccc(OCCN5CCN(C)C(=O)[C@H]5C)cc4)CC3)nn12 [AZD5153] + CCN(CCO)CCCOc1ccc2c(Nc3cc(CC(=O)Nc4cccc(F)c4)[nH]n3)ncnc2c1 [AZD2811] (first compound max 1 µM, 7x7, partner max 1 µM) | 0.589 | 0.185 | 0.497 | 0.367 | 0.9 | 0.531 | 0.613 | 0.441 | 0.768 | 0.193 | 0.936 | 0.69 | 0.428 | 0.535
2 | CC(=O)c1c(C)c2cnc(Nc3ccc(N4CCNCC4)cn3)nc2n(C2CCCC2)c1=O [Palbociclib] + Cc1c2c(nn1C)CSCc1cc(n(C)n1)CSc1cc(c3ccccc3c1)OCCCc1c(C(=O)O)n(C)c3c-2c(Cl)ccc13 [AZD5991] (first compound max 10 µM, 7x7, partner max 1 µM) | 0.25 | 0.916 | 0.595 | 0.269 | 0.626 | 0.142 | 0.732 | 0.576 | 0.899 | 0.258 | 0.88 | 0.882 | 0.217 | 0.887
3 | COc1cccc(OCCCN)c1-c1cc(Nc2cnc(C#N)cn2)n[nH]1 [Prexasertib] + C[C@@H]1COCCN1C2=NC(=NC(=C2)C3(CC3)[S@](=N)(=O)C)C4=C5C=CNC5=NC=C4 [AZD6738] (first compound max 1 µM, 7x7, partner max 10 µM) | 0.716 | 0.599 | 0.504 | 0.337 | 1 | 0.73 | 0.957 | 0.808 | 0.745 | 0.506 | 0.964 | 0.585 | 0.433 | 0.826
4 | CN(CCO)CC[C@H](CSc1ccccc1)Nc1ccc(S(=O)(=O)NC(=O)c2ccc(N3CCC([C@@H](O)c4ccccc4-c4ccc(Cl)cc4)CC3)cc2)cc1S(=O)(=O)C(F)(F)F [AZD4320] + C[C@@H](Nc1cc(F)cc(F)c1)c1cc(C(=O)N(C)C)cc2c(=O)cc(N3CCOCC3)oc12 [AZD8186] (first compound max 1 µM, 7x7, partner max 3 µM) | 0.881 | 0.614 | 0.57 | 0.417 | 0.543 | 0.484 | 0.701 | 0.49 | 0.914 | 0.629 | 0.971 | 0.835 | 0.746 | 0.427
5 | COc1cccc(OCCCN)c1-c1cc(Nc2cnc(C#N)cn2)n[nH]1 [Prexasertib] + Cc1cc2ncnn2cc1Nc1ncc2c(n1)n(C1CCOCC1)c(=O)n2C [AZD7648] (first compound max 1 µM, 7x7, partner max 10 µM) | 0.716 | 0.646 | 0.504 | 0.412 | 1 | 0.759 | 0.971 | 0.842 | 0.742 | 0.607 | 0.964 | 0.595 | 0.49 | 0.865
6 | COc1cccc2c1C(=O)c1c(O)c3c(c(O)c1C2=O)C[C@@](O)(C(=O)CO)C[C@@H]3O[C@H]1C[C@H](N)[C@H](O)[C@H](C)O1 [Doxorubicin] + Cc1cc2ncnn2cc1Nc1ncc2c(n1)n(C1CCOCC1)c(=O)n2C [AZD7648] (first compound max 1 µM, 7x7, partner max 10 µM) | 0.554 | 0.769 | 0.176 | 0.201 | 0.978 | 0.407 | 0.957 | 0.826 | 0.754 | 0.664 | 0.994 | 0.943 | 0.411 | 0.552
7 | CC1(C)CCC(CN2CCN(c3ccc(C(=O)NS(=O)(=O)c4ccc(NCC5CCOCC5)c([N+](=O)[O-])c4)c(Oc4cnc5[nH]ccc5c4)c3)CC2)=C(c2ccc(Cl)cc2)C1 [Venetoclax] + C[C@@H]1COCCN1C2=NC(=NC(=C2)C3(CC3)[S@](=N)(=O)C)C4=C5C=CNC5=NC=C4 [AZD6738] (first compound max 1 µM, 7x7, partner max 10 µM) | 0.677 | 0.491 | 0.48 | 0.305 | 0.938 | 0.366 | 0.887 | 0.5 | 0.67 | 0.344 | 0.954 | 0.652 | 0.342 | 0.837
8 | CCN(CCO)CCCOc1ccc2c(Nc3cc(CC(=O)Nc4cccc(F)c4)[nH]n3)ncnc2c1 [AZD2811] + O=C(c1cc(Cc2n[nH]c(=O)c3ccccc23)ccc1F)N1CCN(C(=O)C2CC2)CC1 [Olaparib] (first compound max 1 µM, 7x7, partner max 10 µM) | 0.272 | 0.286 | 0.188 | 0.234 | 0.488 | 0.276 | 0.328 | 0.473 | 0.667 | 0.241 | 0.982 | 0.805 | 0.19 | 0.245
9 | C[C@@H](c1ccc2nccn2c1)n1nnc2ncc(-c3cnn(C)c3)nc21 [Savolitinib] + Cc1c2c(nn1C)CSCc1cc(n(C)n1)CSc1cc(c3ccccc3c1)OCCCc1c(C(=O)O)n(C)c3c-2c(Cl)ccc13 [AZD5991] (first compound max 1 µM, 7x7, partner max 1 µM) | 0.148 | 0.465 | 0.256 | 0.0962 | 0.279 | 0.396 | 0.266 | 0.462 | 0.874 | 0.323 | 0.704 | 0.899 | 0.185 | 0.406
10 | C[C@@H](c1ccc2nccn2c1)n1nnc2ncc(-c3cnn(C)c3)nc21 [Savolitinib] + CC1(C)CCC(CN2CCN(c3ccc(C(=O)NS(=O)(=O)c4ccc(NCC5CCOCC5)c([N+](=O)[O-])c4)c(Oc4cnc5[nH]ccc5c4)c3)CC2)=C(c2ccc(Cl)cc2)C1 [Venetoclax] (first compound max 1 µM, 7x7, partner max 1 µM) | 0.0991 | 0.0828 | 0.246 | 0.038 | 0.0971 | 0.133 | 0.13 | 0.108 | 0.229 | 0.334 | 0.781 | 0.116 | 0.116 | 0
11 | COc1cccc(OCCCN)c1-c1cc(Nc2cnc(C#N)cn2)n[nH]1 [Prexasertib] + C=CCn1c(=O)c2cnc(Nc3ccc(N4CCN(C)CC4)cc3)nc2n1-c1cccc(C(C)(C)O)n1 [AZD1775] (first compound max 1 µM, partner max 1 µM) | 0.763 | 0.839 | 0.517 | 0.388 | 1 | 0.847 | 0.991 | 0.938 | 0.723 | 0.638 | 0.994 | 0.954 | 0.482 | 0.807
12 | Cc1cc2ncnn2cc1Nc1ncc2c(n1)n(C1CCOCC1)c(=O)n2C [AZD7648] + C=CCn1c(=O)c2cnc(Nc3ccc(N4CCN(C)CC4)cc3)nc2n1-c1cccc(C(C)(C)O)n1 [AZD1775] (first compound max 10 µM, partner max 1 µM) | 0.635 | 0.559 | 0.478 | 0.192 | 0.815 | 0.392 | 0.704 | 0.575 | 0.553 | 0.318 | 0.964 | 0.448 | 0.293 | 0.68
13 | CN(C)CCCOc1ccc(-c2ccc3ncc4c(c3c2)n(C2CCOCC2)c(=O)n4C)cn1 [AZD0156] + C[C@@H]1COCCN1C2=NC(=NC(=C2)C3(CC3)[S@](=N)(=O)C)C4=C5C=CNC5=NC=C4 [AZD6738] (first compound max 1 µM, 7x7, partner max 10 µM) | 0.759 | 0.449 | 0.392 | 0.229 | 0.998 | 0.489 | 0.886 | 0.804 | 0.727 | 0.25 | 0.975 | 0.494 | 0.321 | 0.683
14 | NC1(C(=O)N[C@@H](CCO)c2ccc(Cl)cc2)CCN(c2ncnc3[nH]ccc23)CC1 [Capivasertib] + Cn1cnc2c(F)c(Nc3ccc(Br)cc3Cl)c(C(=O)NOCCO)cc21 [Selumetinib] (first compound max 10 µM, 7x7, partner max 10 µM) | 0.454 | 0.809 | 0.434 | 0.573 | 0.363 | 0.703 | 0.793 | 0.28 | 0.656 | 0.597 | 0.718 | 0.998 | 0.723 | 0.644
15 | C[C@@H]1COCCN1c1cc(C2([S@](C)(=N)=O)CC2)nc(-c2ccnc3[nH]ccc23)n1 [AZD6738] + O=C(c1cc(Cc2n[nH]c(=O)c3ccccc23)ccc1F)N1CCN(C(=O)C2CC2)CC1 [Olaparib] (first compound max 10 µM, 7x7, partner max 10 µM) | 0.663 | 0.415 | 0.438 | 0.28 | 0.994 | 0.347 | 0.886 | 0.944 | 0.666 | 0.376 | 0.988 | 0.634 | 0.314 | 0.567
